Test results as given in patent US6492387B2, “Isoindolyl and isoquinolinyl aroyl pyrrole compounds” (Ortho-McNeil Pharamaceutical, Inc., priority 2000, dated 2002).
Structures can show the parent of a compound that is named as a salt.

melting point: 231 to 233 °C
Structure (SMILES): COc1cc2c(cc1OC)CN(CC(=O)c1cc(C(=O)c3ccc(SC)cc3)n(C)c1)CC2 (as salt: hydrochloride) [Compound 4, 2-(3,4-dihydro-6,7-dimethoxy-2(1H)-isoquinolinyl)-1-[1-methyl-5-[4-(methylthio)benzoyl]-1H-pyrrol-3-yl]-ethanone]
